Laboratory results published in patent publication US20090192123A1, “Use of dipyridamole or mopidamole for treatment and prevention of thrombo-embolic diseases and disorders caused by excessive formation of Thrombin and/or by elevated expression of Thrombin receptors” (BOEHRINGER INGELHEIM INTERNATIONAL GMBH, priority 2003, published 2009).

Columns and labels:
[1] = test system: Thrombin receptor (PAR-1); test: Thrombin receptor (PAR-1) expression on platelets of post-stroke patients during treatment, flow cytometry with antibodies; assay type: in vivo, human; conditions: for Thrombin receptor (PAR-1) SPAN 12 (intact receptor) / Thrombin receptor (PAR-1) WEDE 15 (cleaved receptor): platelets of stroke patients, relative number, mean ± SD; for Change of intact (complete) and cleaved Thrombin receptor expression on platelets, in words: stroke patients, course of treatment of 30 days / one month, platelets ex vivo
Procedure: In order to study the inhibition of Thrombin receptor expression, patients surviving a stroke have been treated with conventional antiplatelet therapy (oral ASA) or a combination of Dipyridamole and ASA (Aggrenox) and thrombin receptor expression was measured during the course of treatment of one month. The expression of the complete as well as the cleaved Thrombin receptor was measured by flow cytometry using well established antibody technology on platelets after venipuncture.
Inhibition of Thrombin Receptor Expression in Platelets—by the Dipyridamole
Table 1 represents the mean and standard deviation of the relative numbers of expressed intact as well as cleaved Thrombin receptors on platelets over time after initiation of treatment with either ASA or the combination of Dipyridamole and ASA.

[2] = ESPS-2 clinical study, compared with low-dose aspirin / aspirin alone; cited from earlier work
[3] = Baseline (n = 15), flow cytometry

Row | SMILES | Thrombin receptor (PAR-1) SPAN 12 (intact receptor) ([1]; 24 hr of treatment (n = 15)) | Thrombin receptor (PAR-1) WEDE 15 (cleaved receptor) ([1]; 24 hr of treatment (n = 15)) | Thrombin receptor (PAR-1) SPAN 12 (intact receptor) ([1]; 3 days of treatment (n = 15)) | Thrombin receptor (PAR-1) WEDE 15 (cleaved receptor) ([1]; 3 days of treatment (n = 15)) | Thrombin receptor (PAR-1) SPAN 12 (intact receptor) ([1]; 7 days of treatment (n = 15)) | Thrombin receptor (PAR-1) WEDE 15 (cleaved receptor) ([1]; 7 days of treatment (n = 15)) | Thrombin receptor (PAR-1) SPAN 12 (intact receptor) ([1]; 15 days of treatment (n = 14)) | Thrombin receptor (PAR-1) WEDE 15 (cleaved receptor) ([1]; 15 days of treatment (n = 14)) | Thrombin receptor (PAR-1) SPAN 12 (intact receptor) ([1]; 30 days of treatment (n = 12)) | Thrombin receptor (PAR-1) WEDE 15 (cleaved receptor) ([1]; 30 days of treatment (n = 12)) | Thrombin receptor (PAR-1) SPAN 12 (intact receptor) [1, 3] | Thrombin receptor (PAR-1) WEDE 15 (cleaved receptor) [1, 3] | Change of intact (complete) and cleaved Thrombin receptor expression on platelets, in words [1] | Reduction of stroke risk, in words [2]
1 | CC(=O)Oc1ccccc1C(=O)O [ASA, acetylsalicalic acid] | 37 ± 7 | 21.9 ± 4.6 | 28 ± 9 | 15.3 ± 3.3 | 24 ± 5 | 17.1 ± 6.1 | 26 ± 4.* | 16.9 ± 7.5 | 22 ± 7 | 14.2 ± 5.0 | 34 ± 7 | 21.0 ± 5.3 | mild reduction | –
2 | OCCN(CCO)c1nc(N2CCCCC2)c2nc(N(CCO)CCO)nc(N3CCCCC3)c2n1 [Dipyridamole, 2,6-bis(diethanolamino)-4,8-dipiperidino-pyrimido[5,4-d]pyrimidine] | – | – | – | – | – | – | – | – | – | – | – | – | significant reduction | as effective as low-dose aspirin
